In publication PMC5111108, “An insecticide resistance-breaking mosquitocide targeting inward rectifier potassium channels in vectors of Zika virus and malaria” (Scientific Reports, 2016):
Where two headings read alike, the source gives them in different places.

Molecular target: T1, hKir2.1 (Homo sapiens, UniProt P63252)
T1 construct: expressed in transfected cells
T1 sequence (P63252 1-427): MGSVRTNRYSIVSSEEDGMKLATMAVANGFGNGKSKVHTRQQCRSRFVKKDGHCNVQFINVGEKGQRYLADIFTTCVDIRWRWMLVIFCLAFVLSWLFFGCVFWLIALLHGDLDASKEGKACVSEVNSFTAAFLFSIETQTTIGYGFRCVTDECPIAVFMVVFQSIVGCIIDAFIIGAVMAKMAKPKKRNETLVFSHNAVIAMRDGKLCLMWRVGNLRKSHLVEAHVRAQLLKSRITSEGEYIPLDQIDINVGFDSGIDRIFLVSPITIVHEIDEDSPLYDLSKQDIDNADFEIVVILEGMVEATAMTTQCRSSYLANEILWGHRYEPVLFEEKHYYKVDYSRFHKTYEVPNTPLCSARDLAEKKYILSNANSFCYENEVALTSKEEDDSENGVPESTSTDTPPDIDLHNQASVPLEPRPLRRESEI
Experiment: Tl+ flux assay, mammalian Kir2.1
Format: cell-based
Description: The open-reading frame of a full-length cDNA encoding AnKir1 cloned from An. gambiae Malpighian tubules (Genbank Accession # KJ596497)[17] was sub-cloned into the pcDNA5/TO expression vector (Life Technologies) and used for stable cell line generation, as described previously. Expression constructs for mammalian Kir channels were developed and validated in previous studies by our group.
Tl+ flux assay development
Tl+ flux assays were performed essentiall y as described previousl y (1). Briefl y, stabl y transfect ed T-Rex -HEK- 293- AnKir1 cells were cultured overnight in 384-well plates in media containing DMEM, 10% dial yz ed FBS and 1μg/ m L tetrac ycline to induce channel expression
(Fig. S1A). The next day, the cell culture medium was replaced with a dye-loading solution containing assay buffer (Hanks Balanced Salt Solution with 20 mM HEPES, pH 7.3), 0.01% (w/v) Pluronic F-127 (Li fe Technologies, Carlsbad, CA), and 1.2 μM of the thallium-sensitive dye Thallos-AM (TEFl abs, Austin, TX). Following 1 hr incubation at room temperature, the d ye-loading solution was washed from the plates and replaced with 20 μ L/well of assa y buffer. The plates were transferred t o a Ham amatsu Functional Drug Screening System 6000 (FDSS6000; Hamamatsu, Tokyo, J apan) where 20 μ L/well of test compounds in assay buffer (as prepared below) were added and allowed to incubate with the cells for 20 min. After the incubation period, a baseline recordi ng was collected at 1 Hz for 10 s (excitation 470 ± 20 nm, emission 540 ± 30 nm) followed by a t hallium stimulus buffer addition (10 μL/well) and data collection for an additional 4 min. The Tl + stimulus buffer contains in (mM) 125 NaHCO3, 1.8 CaSO4, 1 MgSO4, 5 glucose, 12 Tl2SO4, 10 HEPES, pH 7.4. For Tl + flux assays on Kir2.x, Kir4.1 and Kir6.2/SUR1 ex pressing cells, the Tl+ stimulus buffer contained 1.8 mM Tl 2SO4. […]
Prism software (GraphPad Software) was used to generate CRC from Tl+ fl ux ..Half-inhibition concentration (IC50) values were calculated from fits using a four parameter logistic equation.
High-throughput screeni ng
The test compounds were transferred to daughter pol yprop ylene 384-well plates (G reiner Bio-One, Monroe, NC) using an Echo555 liquid handler (Labcyte, Sunnyvale, CA), and then diluted into assay buffer to generat e a 2X stock in 0.6% DMSO (0.3% final). […]
Concentration- response curves (CRCs) were gener ated b y screening compounds at 3-fold dilution series (1 nM - 30 μM).
Tl+ flux data were anal yzed as previousl y d escri bed (2, 3) using a combination of Excel (Microsoft Corp, Redmond, WA) with XLfit add-in (IDBS, Guildford, Surre y, UK), Ori ginPro (Ori gin Lab, Northampton, MA), and GraphPad Prism (GraphPad Software, San Diego, CA, USA) software. R aw data were opened in Excel and each data point in a gi ven trace was divided by the first data point from that trace (static ratio) followed by subtraction of data points from control traces gen erated in presence of vehicl e co ntrols. The slope of the fluorescen ce increas e beginning 5 s after Tl+ addition and ending 15 s after Tl + addition was calcu lated.

[1] = Tl+ flux, Tables S2/S3 and supplemental text, read-out: hKir2.1 IC50
[2] = Tl+ flux assay, read-out: Kir2.1 IC50 (Tl+ flux)

| Compound | IC50 [1] [µM] | IC50 [2] [µM] |
| --- | --- | --- |
| O=C1CCCc2c1ccn2CC(=O)N1CCCc2ccccc21 [Compound 4] | > 30 | – |
| O=C(Cn1nc(C(F)(F)F)c2c1CCCC2)N1CCCC2CCCCC21 (stereo not shown) [Compound 9] | > 30 | – |
| O=C(Cn1nc(C(F)(F)F)c2c1CCCC2)N1CCCC(c2ccccc2)C1 (stereo not shown) [Compound 12] | > 30 | – |
| CC1CC(C)CN(C(=O)Cn2nc(C(F)(F)F)c3c2CCCC3)C1 (stereo not shown) [Compound 13] | > 30 | – |
| O=C(Cn1nc(C(F)(F)F)c2c1CCCC2)N1CCCc2ccccc21 [VU041, 1-(3,4-dihydroquinolin-1(2H)-yl)-2-(3-(trifluoromethyl)-4,5,6,7-tetrahydro-1H-indazol-1-yl)ethan-1-one] | 11.3 | 12.7 |
| O=C(Cn1ncc2c1CCOC2)N1CCCc2ccccc21 [VU730] | – | > 30 |
